This note sets out measurements from US20250145564A1, “SULFONYLUREA COMPOUND, PREPARATION METHOD THEREFOR, AND APPLICATION THEREOF” (SHANGHAI INSTITUTE OF MATERIA MEDICA, CHINESE ACADEMY OF …, priority 2021, published 2025).

The subject of test [1] is mice with chronic heart failure (TAC). The experiment in a line: Anti-heart failure effect in vivo, TAC mouse model. Particulars: for impaired cardiac function (EF value, FS value, dp/dt reduced by TAC): daily gavage 0.2 mg/kg and 0.4 mg/kg; for cross-sectional area of cardiomyocytes, HE staining (myocardial hypertrophy) / positive area of Sirius red staining (myocardial fibrosis): daily gavage eight weeks, I-1, I-23 0.2 and 0.4 mg/kg, glimepiride 1.2 mg/kg. From the text: (§1) 12-week-old male C57BL/6 mice, which were purchased from Gempharmatech Co., Ltd, were raised in the SPF animal house of Tongji Medical College, Huazhong University of Science and Technology. After one week of acclimatization in the animal house, the mice were subjected to thoracic aortic constriction as the TAC group. Another group of mice were subjected to thoracotomy without ligation of thoracic aorta as Sham group. Meanwhile, AUDA was used as the positive control.
(§2) Cardiac ultrasound detection was performed on a Visual Sonics Vevo 2100 small animal ultrasound imager. The major measurement indicators include heart rate (HR), left ventricular ejection fraction (LVEF), left ventricular fractional shortening (LVFS), left ventricular internal dimension-diastole (LVIDd) and left ventricular internal dimension-systole (LVIDs), and left ventricular posterior wall thickness (LVPWd and LVPWs).
(§3) The detection was performed on a Millar pressure-volume system from Millar Instr Ment PowerLab. After the animals were anesthetized to an appropriate extent, a midline incision was made in the neck, the right common carotid artery was separated, ligated at the distal end and clipped at the proximal end. A V-shaped incision was made on the artery with microscissors, and a microcatheter was inserted to the left ventricle. Signals were recorded through a conduction system to obtain hemodynamic data such as heart rate (HR), left ventricular end diastolic pressure (PED), left ventricular end systolic pressure (PES), maximum rate of decrease in left ventricular pressure (−dp/dtmin), and maximum rate of increase in left ventricular pressure (+dP/dtmax).
(§4) The myocardial tissue was placed in an embedding frame, soaked and fixed in neutral formaldehyde solution, dehydrated, and embedded in paraffin. The paraffin block was then sliced into sections with a thickness of 4 μm on a microtome. The general appearance of the myocardium was observed through HE staining, and the myocardial fibrosis was observed through Sirius red staining.
(§5) Total RNA was extracted using Invitrogen's Trizol reagent, then cDNA was obtained using TAKARA's reverse transcription kit, and finally the mRNA content of related genes was amplified with specific primers.
Cardiac ultrasound examination was performed two weeks after TAC surgery. 24 TAC mice with no significant difference in cardiac function were selected and randomly divided into a model group (TAC) and a treatment group (TAC+compound). The model group received no other treatment, while the treatment group received daily gavage (0.2 mg/kg and 0.4 mg/kg for I-1 and I-23 of the present application, and 1.2 mg/kg for glimepiride). Eight weeks later, i.e., at the chronic heart failure phase, the animals were sacrificed, and tissue specimens were collected to perform the above detections.

In test [2] the target is T1, sEH in cardiomyocytes (AC16) (Homo sapiens, UniProt P34913).
T1 construct: endogenous in cells; host or cells: AC16 human cardiomyocyte cell line (ATCC)
T1 sequence (P34913 1-555): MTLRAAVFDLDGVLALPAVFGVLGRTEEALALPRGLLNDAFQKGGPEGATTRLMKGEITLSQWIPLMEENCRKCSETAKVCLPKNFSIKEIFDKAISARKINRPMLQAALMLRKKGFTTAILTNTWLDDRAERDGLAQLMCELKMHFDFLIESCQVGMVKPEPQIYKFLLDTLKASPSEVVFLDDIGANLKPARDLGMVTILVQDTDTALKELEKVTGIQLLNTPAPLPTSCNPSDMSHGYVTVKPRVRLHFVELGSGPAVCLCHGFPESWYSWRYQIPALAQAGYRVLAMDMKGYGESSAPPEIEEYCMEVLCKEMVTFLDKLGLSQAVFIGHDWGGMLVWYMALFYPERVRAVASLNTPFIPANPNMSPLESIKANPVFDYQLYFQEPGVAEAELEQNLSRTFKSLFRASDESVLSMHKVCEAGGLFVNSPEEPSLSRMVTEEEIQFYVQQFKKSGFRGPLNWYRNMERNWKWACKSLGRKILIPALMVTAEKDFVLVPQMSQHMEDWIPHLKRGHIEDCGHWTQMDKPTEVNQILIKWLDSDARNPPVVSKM
As to the kind of experiment: Inhibition assay on sEH in cardiomyocytes (14,15-EET/DHET ELISA). The format is cell-based. Particulars: AC16, 0.1, 1 and 10 μM, 24 hours, compared with the control. The procedure:
(§6) Biomaterial sources: Human cardiomyocyte cell line AC16 was purchased from ATCC, USA. Phenylephrine (PE) was purchased from Sigma Company. AUDA was purchased from Cayman Company.
The compounds were dissolved in DMSO. The working concentrations were 0.1, 1 and 10 μM for the compounds of the present invention, 0.1, 1 and 10 μM for glimepiride, and 1 μM for AUDA. The incubation time was 24 hours.
The ELISA detection kit (BIOTARGET 14,15-EET/DHET ELISA KIT) from Detroit R&D company was used, and the experiment was conducted according to the instructions of the kit.
(§7) After 24 hours of incubation, cardiomyocytes were collected to perform the above detection.
A general note: ELISA stands for enzyme-linked immunosorbent assay.

Test [3] concerns the target T2, sEH (human recombinant) (Homo sapiens, UniProt P34913).
T2 sequence (P34913 1-555): T1 sequence (P34913 1-555)
The experiment in a line: sEH inhibition assay (fluorescence).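 Note: enzyme preincubated with compound 30 min at 25 °C, then substrate added and fluorescence read after 15 min at 25 °C, 320 nm and 460 nm, versus DMSO negative control.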
Protocol: sEH Assay Buffer was purchased from Cayman Chemical; sEH (human recombinant) was purchased from Cayman Chemical; sEH substrate was purchased from Cayman Chemical. The working solution of 20% DMSO for the compounds was prepared by mixing dimethyl sulfoxide with water in a volume ratio of 1:4, and shaking to mix well.
sEH Assay Buffer (10×), SEH (human recombinant) and sEH substrate were thawed on ice.
The sEH Assay Buffer (lux) was prepared into a 1×sEH Assay Buffer with deionized water. 12 μL of sEH was added with 588 µL of 1× Assay Buffer to be diluted 50 times to obtain a sEH working solution. 180 µL of 1× Assay Buffer was added into the corresponding wells; the sEH working solution was added to the corresponding wells at 5 μL/well; the working solution of 20% DMSO for the compounds was added into the corresponding wells at 5 μL/well, and blank wells and negative control wells added with an equal amount of DMSO were set. After centrifuged at 1000 rpm for 1 minute, the wells were incubated at 25° C. for 30 minutes. After incubation, the substrate was added into the 96-wells plate at 5 μL/well and the plate was centrifuged at 1000 rpm for 1 minute. After incubation at 25° C. for 15 minutes, fluorescence values were read at emission wavelengths of 320 nm and 460 nm.

Test [4] has as its system PE induced cardiomyocyte remodeling (AC16). As to the kind of experiment: Inhibitory effect on PE induced myocardial injury (BNP mRNA). The format is cell-based, human. Particulars: PE 100 μM, 24 hours; compounds 0.1, 0.5, 1 μM; glimepiride 10 μM. The procedure: as §6
PE was dissolved in disinfected deionized water with a working concentration of 100 μM. The compounds were dissolved in DMSO, and the working concentrations were 0.1, 0.5, 1 μM for the compounds of the present invention, 10 μM for glimepiride, and 1 μM for AUDA. The incubation time was 24 hours.
as §5, §7

Test [5] has as its system mice with chronic heart failure (TAC). The experiment in a line: TAC mouse model, comparison of I-23 and Empagliflozin. It is filed as in vivo. Particulars: for cardiac hypertrophy (heart photographs, heart weight/tibia length HW/TL) / expression of BNP in mouse cardiomyocytes after TAC / impaired cardiac function (EF value, FS value, LVIDs, dp/dt) / positive area of Sirius red staining (myocardial fibrosis): mice, daily gavage eight weeks, I-23 0.44 mg/kg, Empagliflozin 10 mg/kg.
Source text: as §1, §2, §3, §4, §5
Cardiac ultrasound examination was performed two weeks after TAC surgery. 24 TAC mice with no significant difference in cardiac function were selected and randomly divided into a model group (TAC) and a treatment group (TAC+compound). The model group received no other treatment, while the treatment group received daily gavage (0.44 mg/kg for I-23 or 10 mg/kg for Empagliflozin). Eight weeks later, i.e., at the chronic heart failure phase, the animals were sacrificed, and tissue specimens were collected to perform the above detections.
This experiment was to compare the ameliorative effects of I-23 and Empagliflozin on chronic heart failure.

The mark [6] stands for this setting: I-23 0.44 mg/kg vs Empagliflozin 10 mg/kg.

As for `CCC1=C(C)CN(C(=O)NCCc2ccc(S(=O)(=O)NC(=O)N[C@H]3CC[C@H](COC(C)=O)CC3)cc2)C1=O` [Compound I-23], the “impaired cardiac function (EF value, FS value, dp/dt reduced by TAC)” value in test [1] (eight weeks) is given as “can inhibit this effect”. Besides, in test [1], the “cross-sectional area of cardiomyocytes, HE staining (myocardial hypertrophy)” value is recorded as “can inhibit this effect” and the “positive area of Sirius red staining (myocardial fibrosis)” value (from here on “positive area of Sirius red staining”) is “can inhibit this effect”. In test [2], the “content of DHET in cardiomyocytes” value is recorded as “reducing” and the “content of EETs in cardiomyocytes” value is recorded as “significantly increase”. The 50% inhibitory concentration (IC50) – broadly, the concentration that gives 50% inhibition – in test [3] was 1 to 10 µM. The “BNP expression induced by PE (cardiomyocyte remodeling)” value (from here on “BNP expression induced by PE”) in test [4] is “can inhibit this effect”. Besides, in test [5] (setting [6]), the “effect on cardiac hypertrophy relative to Empagliflozin” value is given as “comparable to that of Empagliflozin” and the “effect on impaired cardiac function relative to Empagliflozin” value is on record as “comparable to that of Empagliflozin”. For the same compound, in test [5], the “cardiac hypertrophy (heart photographs, heart weight/tibia length HW/TL)” value is reported as “reversal effect”; the “expression of BNP in mouse cardiomyocytes after TAC” value (shortened to “expression of BNP”) was “can inhibit this effect”; the “impaired cardiac function (EF value, FS value, LVIDs, dp/dt)” value was “can inhibit this effect”; the “positive area of Sirius red staining” value was “can inhibit this effect”.
For `Cc1ccc(S(=O)(=O)N(C)C(=O)NN2CC3CCCC3C2)cc1` (centres unmarked) [Compound I-4], in test [2], the “content of DHET in cardiomyocytes” value is on record as “reducing” and the “content of EETs in cardiomyocytes” value is on record as “significantly increase”. The IC50 in test [3] lay within 1 to 10 µM. In addition, the “BNP expression induced by PE” value in test [4] was “can inhibit this effect”.
On to `CCC1=C(C)CN(C(=O)NCCc2ccc(S(=O)(=O)N(C(=O)N[C@H]3CC[C@H](C)CC3)C3CC3)cc2)C1=O` [Compound I-8], for which the IC50 in test [3] lay in the range of 1 to 10 µM.
Still for that read-out and setting: then `Cc1ccc(S(=O)(=O)N(C)C(=O)NC2[C@@H](O)C3(C)CC[C@@H]2C3(C)C)cc1` (some centres unmarked) [Compound I-36], with 1 to 10 µM; and `C=CCN(C(=O)N[C@H]1CC[C@H](C)CC1)S(=O)(=O)c1ccc(CCNC(=O)N2CC(C)=C(CC)C2=O)cc1` [Compound I-6], with 1 to 10 µM.
As for `CCC1=C(C)CN(C(=O)NCCc2ccc(S(=O)(=O)NC(=O)N[C@H]3CC[C@H](OC(N)=O)CC3)cc2)C1=O` [Compound I-31], the concentration for half-maximal inhibition (IC50) in test [3] lay in the range of 1 to 10 µM.
For the compound `CCC1=C(C)CN(C(=O)NCCc2ccc(S(=O)(=O)N(CC)C(=O)N[C@H]3CC[C@H](C)CC3)cc2)C1=O` [Compound I-37], the IC50 in test [3] lay within 1 to 10 µM.
As for `CCC1=C(C)CN(C(=O)NCCc2ccc(S(=O)(=O)NC(=O)N[C@H]3CC[C@H](COC(=O)C(C)C)CC3)cc2)C1=O` [Compound I-41], the concentration for half-maximal inhibition (IC50) in test [3] was 1 to 10 µM.
For `OC[C@H]1O[C@@H](c2ccc(Cl)c(Cc3ccc(O[C@H]4CCOC4)cc3)c2)[C@H](O)[C@@H](O)[C@@H]1O` [Empagliflozin, reference compound], in test [5], the “cardiac hypertrophy (heart photographs, heart weight/tibia length HW/TL)” value is “reversal effect”; the “expression of BNP” value is “can inhibit this effect”; the “impaired cardiac function (EF value, FS value, LVIDs, dp/dt)” value was “can inhibit this effect”; the “positive area of Sirius red staining” value is recorded as “can inhibit this effect”.
On to `CCNC(=O)OC[C@H]1CC[C@H](NC(=O)N(C)S(=O)(=O)c2ccc(CCNC(=O)N3CC(C)=C(CC)C3=O)cc2)CC1` [Compound I-11], for which the concentration for half-maximal inhibition (IC50) in test [3] was under 0.2 µM.
Same read-out and setting: under `CC(=O)c1ccc(S(=O)(=O)N(C)C(=O)NC2CCCCC2)cc1` [Compound I-5] stands 0.2 to 1 µM; under `CCC1=C(C)CN(C(=O)NCCc2ccc(S(=O)(=O)NC(=O)N[C@H]3CC[C@H](COC(=O)C(C)(C)C)CC3)cc2)C1=O` [Compound I-43], 1 to 10 µM; under `CCC1=C(C)CN(C(=O)NCCc2ccc(S(=O)(=O)N(C)C(=O)N[C@H]3CC[C@H](COC(=O)C(C)C)CC3)cc2)C1=O` [Compound I-42], 1 to 10 µM.
On to `CCC1=C(C)CN(C(=O)NCCc2ccc(S(=O)(=O)NC(=O)N[C@H]3CC[C@H](COP(=O)(OCOC(=O)OC(C)C)OCOC(=O)OC(C)C)CC3)cc2)C1=O` [Compound I-18], for which, in test [3], the IC50 was 10 to 100 µM.
In the case of `CCC1=C(C)CN(C(=O)NCCc2ccc(S(=O)(=O)N(C)C(=O)N[C@H]3CC[C@H](C)CC3)cc2)C1=O` [Compound I-1], the “impaired cardiac function (EF value, FS value, dp/dt reduced by TAC)” value in test [1] (eight weeks) is recorded as “can inhibit this effect”. Further, the “expression of BNP” value in test [1] (daily gavage 0.2 and 0.4 mg/kg, eight weeks) was “can inhibit this effect”. In addition, in test [1], the “cross-sectional area of cardiomyocytes, HE staining (myocardial hypertrophy)” value is “can inhibit this effect” and the “positive area of Sirius red staining” value is listed as “can inhibit this effect”. Moreover, in test [2], the “content of DHET in cardiomyocytes” value is “reducing” and the “content of EETs in cardiomyocytes” value is “significantly increase”. The IC50 in test [3] was 1 to 10 µM. For the same compound, the “BNP expression induced by PE” value in test [4] was “can inhibit this effect”.
`CCC1=C(C)CN(C(=O)NCCc2ccc(S(=O)(=O)NC(=O)N[C@H]3CC[C@H](COC(=O)NC4CC4)CC3)cc2)C1=O` [Compound I-12]: in test [3], the half-maximal inhibitory concentration (IC50) lay in the range of 0.2 to 1 µM.
Take `CCNC(=O)OC[C@H]1CC[C@H](NC(=O)NS(=O)(=O)c2ccc(CCNC(=O)N3CC(C)=C(CC)C3=O)cc2)CC1` [Compound I-10]: the concentration for half-maximal inhibition (IC50) in test [3] was in the range of 0.2 to 1 µM.
Same read-out and setting: under `CCC1=C(C)CN(C(=O)NCCc2ccc(S(=O)(=O)NC(=O)N[C@H]3CC[C@H](COC(=O)CN4CCCCC4)CC3)cc2)C1=O` [Compound I-16] stands 0.2 to 1 µM; under `CCC1=C(C)CN(C(=O)NCCc2ccc(S(=O)(=O)N(C)C(=O)N[C@H]3CC[C@H](CO)CC3)cc2)C1=O` [Compound I-9], 0.2 to 1 µM.
